Measurements published in patent US6458840B2, “Use of valproic acid analog for the treatment and prevention of migraine and affective illness” (American Biogenetic Sciences, Inc., priority 1998, dated 2002).
Several values for one entry are separate records, joined by “and”; a condition that tells them apart may be missing. Equal values may be shown once. Entries after “also recorded” stand apart in the source; their conditions may differ.

Experiments:
[1] = test system: amygdala-kindled seizures; assay: Amygdala-kindling in fully kindled rats (anti-seizure effects); format: in vivo, rat; conditions: for afterdisch.dur.1 (ADD1) / afterdisch.dur.2 (ADD2) / afterdisch.thresh. (ADT) / seizure duration1 (SD1) / seizure duration2 (SD2) / seizure severity (SS): 15 min pretreatment, mean (X); for seizure severity (SS): Racine score; for increase of afterdischarge threshold: versus pre-drug control
Method: For implantation of stimulation and recording electrodes, rats were anesthetized with chloral hydrate (360 mg/kg i.p.) and received stereotaxic implantation (according to the surgery methods described in the atlas of Paxinos and Watson [1986]) of one bipolar electrode in the right basolateral amygdala. Coordinates for electrode implantation were AP-2.2 mm, L-4.8 mm, V-8.5 mm. All coordinates were measured from bregma. Skull screws served as the indifferent reference electrode. The electrode assembly was attached to the skull by dental acrylic cement. After a postoperative period of 2 weeks, constant current stimulations (500 μA, 1 ms, monophasic square-wave pulses, 50/s for 1 s) were delivered to the amygdala at intervals of 1/day until ten stage 5 seizures were elicited. The electrical susceptibility of the stimulated region (threshold for induction of afterdischarges) was recorded on the first day of the experiment (initial afterdischarge threshold) as well as after kindling acquisition (with an interval of at least 4 days after the tenth stage 5 seizure) using an ascending staircase procedure. The initial current intensity was 1 OμA, and the current intensity was increased in steps of about 20% of the previous current at intervals of 1 min until an afterdischarge of at least 3 s duration was elicited. […] In addition to afterdischarge threshold, the following parameters of kindled seizures were measured in fully-kindled rats after stimulation with the afterdischarge threshold current: seizure severity was classified according to Racine (1972): 1 -immobility, eye closure, twitching of vibrissae, sniffing, facial clonus; 2-head nodding associated with more severe facial clonus; 3-clonus of one forelimb; 4-rearing, often accompanied by bilateral forelimb clonus; 5-rearing with loss of balance and falling accompanied by generalized clonic seizures. Seizure duration 1 (SD 1) was the duration of limbic (stage 1-2) and/or motor seizures (stage 3-5). Seizure duration 2 (SD 2) included the time of limbic and/or motor seizures plus the adjacent time of immobility. Afterdischarge duration 1 (ADD 1) was the time of spikes in the EEG recorded from the site of stimulation with a frequency of at least 1 /s. Afterdischarge duration 2 (ADD 2) was the total time of spikes occurring in the EEG including those, which followed the ADD 1 with lower frequency and amplitude.
The anti-seizure effects of 2-propyl-4-hexynoic acid and valproate in fully kindled rats were determined in a group of 8-9 rats (no. 784, 785, 787, 788, 789, 790 [had to be taken out of the trial, because of loss of electrodes], 791, 792, 793) with reproducible stage 5 seizures.
Drugs were injected 15 min prior to stimulation intraperitoneally. Control experiments were always performed 2-3 days before each drug experiment. For control determinations, rats received i.p. injections of vehicle (saline) with the pretreatment time of the respective drug experiment. For all drug experiments, at least 4 days were interposed between 2 drug injections in order to avoid alterations in drug potency due to cumulation or tolerance.
The significance of differences between pre-drug control recordings and recordings after drug injection was calculated by the Wilcoxon signed rank test for paired replicates (SigmaStat for Windows, version 1.0).

PTZ induced seizures = conditions: literature / earlier application; cited from earlier work
[2] = 100 mg/kg i.p., listed as valproate
[3] = 200 mg/kg i.p., listed as valproate

CC#CCC(CCC)C(=O)O (stereo not drawn) [2-propyl-4-hexynoic acid, 2-n-propyl-4-hexynoic acid]
effects against amygdala-kindled seizures, in words ([1]; 50 mg/kg i.p.): no significant effects
afterdisch.dur.1 (ADD1) ([1]; 50 mg/kg i.p.): 93.11 s
afterdisch.dur.2 (ADD2) ([1]; 50 mg/kg i.p.): 93.11 s
afterdisch.thresh. (ADT) ([1]; 50 mg/kg i.p.): 37.33 μA
seizure duration1 (SD1) ([1]; 50 mg/kg i.p.): 78.44 s
seizure duration2 (SD2) ([1]; 50 mg/kg i.p.): 234.33 s
seizure severity (SS) ([1]; 50 mg/kg i.p.): 4.89 score
afterdisch.dur.1 (ADD1) ([1]; 75 mg/kg i.p.): 16.25 s
afterdisch.dur.2 (ADD2) ([1]; 75 mg/kg i.p.): 16 s and 16.25 s
afterdisch.thresh. (ADT) ([1]; 75 mg/kg i.p.): 88.50 μA
seizure duration1 (SD1) ([1]; 75 mg/kg i.p.): 16 s and 16.25 s
seizure duration2 (SD2) ([1]; 75 mg/kg i.p.): 16.25 s
seizure severity (SS) ([1]; 75 mg/kg i.p.): 2.3 score and 2.25 score
increase of afterdischarge threshold ([1]; 75 mg/kg i.p.): 109%
seizure duration1 (SD1) ([1]; 100 mg/kg i.p.): 47 s
seizure severity (SS) ([1]; 100 mg/kg i.p.): 3.6 score
increase of afterdischarge threshold ([1]; 100 mg/kg i.p.): 160%
afterdisch.dur.2 (ADD2) ([1]; 200 mg/kg i.p.): 24 s
seizure duration1 (SD1) ([1]; 200 mg/kg i.p.): 19 s
seizure severity (SS) ([1]; 200 mg/kg i.p.): 1.8 score
increase of afterdischarge threshold ([1]; 200 mg/kg i.p.): 209%
afterdisch.thresh. (ADT; μA) ([1]; 200 mg/kg, mean (X) of 8 kindled rats, control mean 57.88): 178.75 μA
seizure severity (SS; score) ([1]; 200 mg/kg, mean of 8 rats, control mean 4.63): 1.75 score
seizure duration1 (SD1; sec) ([1]; 200 mg/kg, mean of 8 rats, control mean 61.63): 19.25 s
afterdisch.dur.1 (ADD1;sec) ([1]; 200 mg/kg, mean of 8 rats, control mean 77.25): 23.50 s
afterdisch.dur.2 (ADD2; sec) ([1]; 200 mg/kg, mean of 8 rats, control mean 88.13): 23.50 s
seizure duration2 (SD2; sec) ([1]; 200 mg/kg, mean of 8 rats, control mean 197.88): 36.38 s
antiepileptic effect in PTZ test, in words (PTZ induced seizures): effective antiepileptic with a longer duration of activity and greatly reduced sedative and teratogenic effects compared to valproic acid; also recorded: improved antiepileptic compared to valproic acid

CCCC(CCC)C(=O)O [Valproate, valproic acid]
afterdisch.dur.1 (ADD1) ([1]; 50 mg/kg i.p.): 76.67 s
afterdisch.dur.2 (ADD2) ([1]; 50 mg/kg i.p.): 76.67 s
afterdisch.thresh. (ADT) ([1]; 50 mg/kg i.p.): 60.44 μA
seizure duration1 (SD1) ([1]; 50 mg/kg i.p.): 72.22 s
seizure duration2 (SD2) ([1]; 50 mg/kg i.p.): 231.67 s
seizure severity (SS) ([1]; 50 mg/kg i.p.): 4.33 score
increase of afterdischarge threshold ([1]; 50 mg/kg i.p.): 109%
afterdisch.dur.1 (ADD1) ([1]; 75 mg/kg i.p.): 67.25 s
afterdisch.dur.2 (ADD2) ([1]; 75 mg/kg i.p.): 67.25 s
afterdisch.thresh. (ADT) ([1]; 75 mg/kg i.p.): 73.13 μA
seizure duration1 (SD1) ([1]; 75 mg/kg i.p.): 54.00 s
seizure duration2 (SD2) ([1]; 75 mg/kg i.p.): 250.75 s
seizure severity (SS) ([1]; 75 mg/kg i.p.): 4.13 score
increase of afterdischarge threshold ([1]; 75 mg/kg i.p.): 77%
afterdisch.dur.1 (ADD1) ([1]; 100 mg/kg i.p.): 20.00 s
afterdisch.dur.2 (ADD2) ([1]; 100 mg/kg i.p.): 20.00 s
afterdisch.thresh. (ADT) ([1]; 100 mg/kg i.p.): 151.67 μA
seizure duration1 (SD1) ([1]; 100 mg/kg i.p.): 18.22 s
seizure duration2 (SD2) ([1]; 100 mg/kg i.p.): 43.44 s
seizure severity (SS) ([1]; 100 mg/kg i.p.): 3.00 score
seizure severity (SS) [1, 2]: 3.0 score
afterdisch.dur.2 (ADD2) [1, 2]: 20 s
seizure duration1 (SD1) [1, 2]: 18 s
increase of afterdischarge threshold ([1]; 100 mg/kg i.p.): 319%
afterdisch.dur.1 (ADD1) ([1]; 200 mg/kg i.p.): 8.75 s
afterdisch.dur.2 (ADD2) ([1]; 200 mg/kg i.p.): 8.75 s
afterdisch.thresh. (ADT) ([1]; 200 mg/kg i.p.): 496.25 μA
seizure duration1 (SD1) ([1]; 200 mg/kg i.p.): 8.75 s
seizure duration2 (SD2) ([1]; 200 mg/kg i.p.): 8.75 s
seizure severity (SS) ([1]; 200 mg/kg i.p.): 1.63 score
seizure severity (SS) [1, 3]: 1.6 score
afterdisch.dur.2 (ADD2) [1, 3]: 9 s
seizure duration1 (SD1) [1, 3]: 9 s
increase of afterdischarge threshold ([1]; 200 mg/kg i.p.): 970%
effects against amygdala-kindled seizures, in words ([1]; all doses tested: 50, 75, 100, 200 mg/kg i.p.): significant effects against amygdala-kindled seizures
